PubChem BioAssay AID2060499 (Molecular Pharmacology Branch, DTP, NCI, 2025)
Several values for one entry are separate records, joined by “and”; a condition that tells them apart may be missing. Identical values can stand only once.

Tested on: 777334-354-R2-J4-PDC tumor spheroids with HUVEC/MSC, viability
Test: Anticancer human tumor 777334-354-R2-J4-PDC patient-derived pancreatic adenocarcinoma cell line growth inhibition [GQUAD]
Details: for viability, T/C: stronger effect = lower value
From the text: DNA G-quadruplex Stabilizer Agents in Combinations in Complex Spheroids
A high-throughput screen of multi-cell type tumor spheroids was designed to identify active combinations of DNA G-quadruplex stabilizer agents and targeted small molecules. Complex spheroids include a stromal component modeled by human endothelial cells (HUVEC) and fibroblasts modeled by human mesenchymal stem cells (MSCs). The concentration ranges selected for each drug and investigational agent were based upon clinically achievable concentrations if the clinical Cmax of the agent was known.
Compounds. The drugs and investigational agents: pidnarulex (CX-5461; NSC782164), APTO-253 (NSC789042), BRACO-19 (NSC847499), peposertib (NSC802822), ceralasertib (NSC780249), elimusertib (NSC800525), camonsertib (NSC841442), AZD-1390 (NSC803789), olaparib (NSC753686), talazoparib (NSC767125), ART-558 (NSC835418), sotorasib (NSC818433), MRTX-1133 (NSC836407), SN-38 (NSC673596), topotecan (NSC609699), etoposide (NSC141540), doxorubicin (NSC123127), gemcitabine (NSC613327), 5-fluorouracil (NSC19893), paclitaxel (NSC125973), vemurafenib (NSC761431), panobinostat (NSC761190), R-306465 (JNJ-16241199; NSC773264), adavosertib (NSC754352), TP-3654 (NSC805149), carboplatin (NSC241240), KSQ-4279 (NSC840948), and staurosporine (NSC755774) were obtained from the National Cancer Institute (NCI) Developmental Therapeutics Program Chemical Repository (34). The FDA-approved anticancer drug set is available from the NCI Developmental Therapeutics Program. […] The stock solutions were prepared in dimethyl sulfoxide (DMSO, Sigma-Aldrich, St. Louis, MO, cat. D2650) at 800-fold the tested concentration and stored at -70 degrees C prior to their use. All drugs and investigational agents were tested over a range starting from a high concentration at or near the clinical Cmax and decreasing in half-log increments. If the clinical Cmax for an agent had not been determined, the highest concentration tested was 10 microM.
2.3 Cell Culture. All cells were maintained in an incubator at 37 degrees C and 5% CO2 with 95% humidity. The PDC lines were cultured according to standard operating procedures established by the NCI PDMR. All PDCs were thawed and cultured in Matrigel-coated flasks prepared with a working solution of 1X Ham's F-12 nutrient mix, without supplementation (Invitrogen, cat. 11765054), 100 U/mL penicillin-streptomycin (Invitrogen, cat. 15140122), and 2.5% Matrigel (Corning Inc., cat. 354248) for the first three passages. The 857933-349-R-J2-PDC line was cultured in 6C/Colon 1B media, which includes advanced DMEM/F-12 (Thermo Fisher Scientific, cat. 12634028), 10 mM HEPES (Thermo Fisher Scientific, cat. 15630080), 1X GlutaMAX supplement (Thermo Fisher Scientific, cat. 35050061), 0.1 mg/mL primocin (InvivoGen, cat. ant-pm-2), 10% defined fetal bovine serum, heat inactivated (HyClone Laboratories Inc., cat. SH30070.03HI), 50% L-WRN conditioned media (ATCC, cat. CRL-3276), 1.25 mM N-Acetyl-L-cysteine (Sigma-Aldrich, cat. A9165), 10 mM nicotinamide (Sigma-Aldrich, cat. N0636), 1X B-27 supplement (Thermo Fisher Scientific, cat. 17504044), 1X N-2 supplement (Thermo Fisher Scientific, cat. 17502048), 10 microM Y-27632 dihydrochloride (Tocris Bioscience, cat. 1254), and 50 ng/mL human EGF recombinant protein (Thermo Fisher Scientific, cat. PHG0311). The 485176-168-R4-J1-PDC line was cultured in Panc media, which includes all 6C/Colon 1B media components plus 100 ng/mL human FGF-10 (Thermo Fisher Scientific, cat. 100-26), 500 nM SB-431542 (Selleckchem, cat. S1067), and gastrin (Tocris, cat. 3006).
[…]

[1] = curve of first compound, second compound 0.0316 µM
[2] = curve of first compound, second compound 0.1 µM
[3] = curve of first compound, second compound 0.316 µM
[4] = curve of first compound, second compound 1 µM
[5] = curve of first compound, second compound 3.16 µM
[6] = curve of first compound, second compound 10 µM
[7] = second compound 0.0316 µM, first compound 0.0316 µM
[8] = second compound 0.0316 µM, first compound 0.1 µM
[9] = second compound 0.0316 µM, first compound 0.316 µM
[10] = second compound 0.0316 µM, first compound 1 µM
[11] = second compound 0.0316 µM, first compound 3.16 µM
[12] = second compound 0.0316 µM, first compound 10 µM
[13] = second compound 0.1 µM, first compound 0.0316 µM
[14] = second compound 0.1 µM, first compound 0.1 µM
[15] = second compound 0.1 µM, first compound 0.316 µM
[16] = second compound 0.1 µM, first compound 1 µM
[17] = second compound 0.1 µM, first compound 3.16 µM
[18] = second compound 0.1 µM, first compound 10 µM
[19] = second compound 0.316 µM, first compound 0.0316 µM
[20] = second compound 0.316 µM, first compound 0.1 µM
[21] = second compound 0.316 µM, first compound 0.316 µM
[22] = second compound 0.316 µM, first compound 1 µM
[23] = second compound 0.316 µM, first compound 3.16 µM
[24] = second compound 0.316 µM, first compound 10 µM
[25] = second compound 1 µM, first compound 0.0316 µM
[26] = second compound 1 µM, first compound 0.1 µM
[27] = second compound 1 µM, first compound 0.316 µM
[28] = second compound 1 µM, first compound 1 µM
[29] = second compound 1 µM, first compound 3.16 µM
[30] = second compound 1 µM, first compound 10 µM
[31] = second compound 3.16 µM, first compound 0.0316 µM
[32] = second compound 3.16 µM, first compound 0.1 µM
[33] = second compound 3.16 µM, first compound 0.316 µM
[34] = second compound 3.16 µM, first compound 1 µM
[35] = second compound 3.16 µM, first compound 3.16 µM
[36] = second compound 3.16 µM, first compound 10 µM
[37] = second compound 10 µM, first compound 0.0316 µM
[38] = second compound 10 µM, first compound 0.1 µM
[39] = second compound 10 µM, first compound 0.316 µM
[40] = second compound 10 µM, first compound 1 µM
[41] = second compound 10 µM, first compound 3.16 µM
[42] = second compound 10 µM, first compound 10 µM
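Note: spheroids exposed to compounds for 7 days before readout.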

In the case of `COc1cc(C2c3cc4c(cc3C(OC3OC5COC(C)OC5C(O)C3O)C3COC(=O)C23)OCO4)cc(OC)c1O` (stereo not drawn) + Cc1cnc(CNC(=O)c2c(=O)c3ccc(N4CCCN(C)CC4)nc3n3c2sc2ccccc23)cn1, the IC50 [1] is reported as 6.18 µM, the IC50 [2] is reported as 4.44 µM and the IC50 [3] is reported as 3.71 µM. The IC50 [4] was 5.14 µM, the IC50 [5] was 2.49 µM and the IC50 [6] was 2.91 µM. The viability, T/C [7] was 94.8%, the viability, T/C [8] was 90.6% and the viability, T/C [9] was 85.2%. For the same molecule, the viability, T/C [10] was 70.9%, the viability, T/C [11] was 54.7% and the viability, T/C [12] was 46.6%. For the same molecule, the viability, T/C [13] was 84.6%, the viability, T/C [14] was 78.5% and the viability, T/C [15] was 79.6%. The viability, T/C [16] was 73.4%, the viability, T/C [17] was 56.1% and the viability, T/C [18] was 34.9%. For the same molecule, the viability, T/C [19] was 79.3%, the viability, T/C [20] was 85% and the viability, T/C [21] was 77%. For the same molecule, the viability, T/C [22] was 72.7%, the viability, T/C [23] was 51.4% and the viability, T/C [24] was 39.7%. For the same molecule, the viability, T/C [25] was 68.4%, the viability, T/C [26] was 75.2% and the viability, T/C [27] was 76.1%. It also gave a viability, T/C [28] of 64%, a viability, T/C [29] of 60% and a viability, T/C [30] of 37.5%. The viability, T/C [31] was 57.1%, the viability, T/C [32] was 64.5% and the viability, T/C [33] was 61.6%. It also gave a viability, T/C [34] of 61.1%, a viability, T/C [35] of 47.1% and a viability, T/C [36] of 40.7%. The viability, T/C [37] was 58.6%, the viability, T/C [38] was 57.3% and the viability, T/C [39] was 55.2%. For the same molecule, the viability, T/C [40] was 52%, the viability, T/C [41] was 51.5% and the viability, T/C [42] was 34.7%.
In the case of `O=C(c1cc(Cc2n[nH]c(=O)c3ccccc23)ccc1F)N1CCN(C(=O)C2CC2)CC1`, the viability, T/C (compound 0.0316 µM) is reported as 92.5% and 109% and 99%, the viability, T/C (compound 0.1 µM) is reported as 111% and 84% and 105% and the viability, T/C (compound 0.316 µM) is reported as 96.9% and 103% and 102%. For the same molecule, the viability, T/C (compound 1 µM) was 84.4% and 89.3% and 94.1%, the viability, T/C (compound 3.16 µM) was 88.8% and 76.5% and 101% and the viability, T/C (compound 10 µM) was 77.2% and 75.9% and 79.5%. For the same molecule, the IC50 (curve of compound) was over 10 µM.
In the case of `CC1COCCN1c1cc(C2(O)CC3CCC(C2)O3)c2cnn(-c3ccn[nH]3)c2n1` (stereo not drawn), the viability, T/C (compound 0.0316 µM) is reported as 93.3% and 104% and 95%, the viability, T/C (compound 0.1 µM) is reported as 76.1% and 79.5% and 78.4% and the viability, T/C (compound 0.316 µM) is reported as 52.4% and 54.4% and 51.5%. The viability, T/C (compound 1 µM) was 39.1% and 38.5% and 37.8%, the viability, T/C (compound 3.16 µM) was 30.1% and 36.1% and 34.6% and the viability, T/C (compound 10 µM) was 20.1% and 19.8% and 21.7%. For the same molecule, the IC50 (curve of compound) was 0.447 µM and 0.516 µM and 0.435 µM.
With `CC(C)n1c(=O)n(C)c2cnc3cc(F)c(-c4ccc(OCCCN5CCCCC5)nc4)cc3c21` + CN(C)c1ccc(Nc2c3ccc(NC(=O)CCN4CCCC4)cc3nc3cc(NC(=O)CCN4CCCC4)ccc23)cc1 the IC50 [1] was over 10 µM, the IC50 [2] was over 10 µM and the IC50 [3] was over 10 µM. It also gave an IC50 [4] of over 10 µM, an IC50 [5] of over 10 µM and an IC50 [6] of 1.65 µM. The viability, T/C [7] was 103%, the viability, T/C [8] was 94.4% and the viability, T/C [9] was 99.3%. For the same molecule, the viability, T/C [10] was 107%, the viability, T/C [11] was 115% and the viability, T/C [12] was 92.3%. The viability, T/C [13] was 94%, the viability, T/C [14] was 93% and the viability, T/C [15] was 115%. The viability, T/C [16] was 104%, the viability, T/C [17] was 113% and the viability, T/C [18] was 93.4%. For the same molecule, the viability, T/C [19] was 98.2%, the viability, T/C [20] was 111% and the viability, T/C [21] was 100%. It also gave a viability, T/C [22] of 107%, a viability, T/C [23] of 105% and a viability, T/C [24] of 77.5%. For the same molecule, the viability, T/C [25] was 81.7%, the viability, T/C [26] was 85.6% and the viability, T/C [27] was 101%. The viability, T/C [28] was 90%, the viability, T/C [29] was 103% and the viability, T/C [30] was 75.2%. It also gave a viability, T/C [31] of 84.9%, a viability, T/C [32] of 75.3% and a viability, T/C [33] of 85.6%. It also gave a viability, T/C [34] of 83.2%, a viability, T/C [35] of 91.8% and a viability, T/C [36] of 62.1%. The viability, T/C [37] was 81.5%, the viability, T/C [38] was 75% and the viability, T/C [39] was 61.4%. The viability, T/C [40] was 58.6%, the viability, T/C [41] was 42.2% and the viability, T/C [42] was 31.7%.
